According to patent publication US20260028673A1, “PR[…] OF TCF1+ […]-CELLS IN SEVERE COVID-19 AS MEDIATED BY INTERLEUKIN 12 (IL-12)” (priority 2022, published 2026):
Entries after “also recorded” stand apart in the source; their conditions may differ.

How the values were obtained:
IL-12 production = details: reference 51; cited from earlier work
COVID-19 = details: reference 50; cited from earlier work
IL12p40 = IL12p40 (Homo sapiens, UniProt P29460); assay type: cell-based; details: severe sera, 6 days, FIG. 9D
Chain of IL12p40 (P29460 23-328): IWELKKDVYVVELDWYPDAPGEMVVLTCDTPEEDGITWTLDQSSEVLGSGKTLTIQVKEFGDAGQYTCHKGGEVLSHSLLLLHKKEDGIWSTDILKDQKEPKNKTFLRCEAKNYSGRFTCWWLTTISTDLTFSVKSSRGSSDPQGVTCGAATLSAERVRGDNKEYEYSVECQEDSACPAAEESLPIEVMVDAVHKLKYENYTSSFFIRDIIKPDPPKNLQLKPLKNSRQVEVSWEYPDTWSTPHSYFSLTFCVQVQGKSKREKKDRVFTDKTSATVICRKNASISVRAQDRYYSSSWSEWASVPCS
Chain of IL12p40 (P29459 23-219, further chain): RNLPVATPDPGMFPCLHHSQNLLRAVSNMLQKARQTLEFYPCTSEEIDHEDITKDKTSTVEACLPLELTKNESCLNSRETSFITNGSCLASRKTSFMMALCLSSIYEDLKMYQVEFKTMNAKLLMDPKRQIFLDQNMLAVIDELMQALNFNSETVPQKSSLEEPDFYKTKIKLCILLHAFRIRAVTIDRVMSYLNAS

TCF-1 = details: reference 67; transcriptional level, by inhibiting DNA methyltransferases; cited from earlier work

Row | Compound | IL-12 production (IL-12 production) | Success in treating COVID-19 patients (COVID-19) | TCF1 expression in naïve, TCM, TEM and TEMRA T-cell subsets (IL12p40) | TCF-1 (TCF1) expression (TCF-1)
1 | C[C@@H]1C[C@H]2[C@@H]3CCC4=CC(=O)C=C[C@]4(C)[C@@]3(F)[C@@H](O)C[C@]2(C)[C@@]1(O)C(=O)CO [dexamethasone] | inhibits IL-12 production | proven successful |  | 
2 | IL-12: proinflammatory cytokine interleukin 12 |  |  | restored | down-regulate TCF-1 at the transcriptional level; also recorded: downregulate TCF1
